Experimental data published in publication PMC9376091, “Identification of small molecules targeting homoserine acetyl transferase from Mycobacterium tuberculosis and Staphylococcus aureus” (Scientific Reports, 2022).

How the values were obtained:
[1] = biological target: T1, HSAT, MetX, Rv3341, (His)6-MetX, (His)6-Rv3341 (Mycobacterium tuberculosis, UniProt P9WJY9); assay: DTNB CoA release endpoint assay; format: biochemical
T1 construct: gene metXA

[2] = biological target: T2, S. aureus HSAT, HSAT homolog from S. aureus (Staphylococcus aureus, UniProt A0A447ZIT7); assay: DTNB CoA release endpoint assay; format: biochemical; settings: 1.0 mM L-homoserine, 1.0 mM acetyl-CoA, 5.0 mM MgCl2, Tris-Cl pH 7.4, 37 °C
T2 construct: gene metX; cloned in pET28b (His tag implied), expressed in E. coli BL-21 (DE3, plysS), Ni-NTA and gel filtration; 4QLO used for docking
T2 sequence (A0A447ZIT7 1-322): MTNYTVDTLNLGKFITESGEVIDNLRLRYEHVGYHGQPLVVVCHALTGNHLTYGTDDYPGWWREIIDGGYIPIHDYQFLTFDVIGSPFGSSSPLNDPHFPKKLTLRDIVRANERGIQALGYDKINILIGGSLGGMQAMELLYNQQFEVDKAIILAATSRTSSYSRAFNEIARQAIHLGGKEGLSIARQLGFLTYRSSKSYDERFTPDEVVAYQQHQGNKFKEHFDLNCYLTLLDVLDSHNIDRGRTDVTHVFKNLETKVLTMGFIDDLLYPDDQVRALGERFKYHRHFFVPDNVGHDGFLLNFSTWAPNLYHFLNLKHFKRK

T1 sequence (P9WJY9 whole entry, looked up): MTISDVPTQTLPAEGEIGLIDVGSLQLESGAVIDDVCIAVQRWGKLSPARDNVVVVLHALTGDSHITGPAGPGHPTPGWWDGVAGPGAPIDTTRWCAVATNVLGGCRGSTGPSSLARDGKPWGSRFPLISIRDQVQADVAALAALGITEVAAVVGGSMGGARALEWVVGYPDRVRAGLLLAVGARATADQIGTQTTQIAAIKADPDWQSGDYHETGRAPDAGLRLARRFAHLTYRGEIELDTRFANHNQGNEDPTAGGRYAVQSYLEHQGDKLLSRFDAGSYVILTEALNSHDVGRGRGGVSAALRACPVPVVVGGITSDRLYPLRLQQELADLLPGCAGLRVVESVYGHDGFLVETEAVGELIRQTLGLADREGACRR

COc1cc(-c2ccc(Nc3ccccc3C(=O)O)c(OC)c2)ccc1Nc1ccccc1C(=O)O [compound 6, NSC73735]
inhibition at 100 µM [1]: > 50%

C/C(=N\NC(=S)N(C)C)c1ccccn1.[Cu][Br] [compound 4, NSC635448]
% inhibition at 100 μM [2]: > 60%
% inhibition at 100 μM ([1]; 1.0 mM L-homoserine, 1.0 mM acetyl-CoA, 5.0 mM MgCl2, Tris-Cl pH 7.4, 37 °C): > 50%

O=Nc1c(-c2cccc([N+](=O)[O-])c2)nc2ncccn12 [compound 7, NSC369066]
inhibition at 100 µM [1]: > 50%

Oc1cc(-n2cccn2)c(O)cc1-n1cccn1 [compound 8, NSC645987]
inhibition at 100 µM [1]: > 50%

Cc1ccc(S(=O)(=O)SC/C=C/CSS(=O)(=O)c2ccc(C)cc2)cc1 [compound 5, NSC624158]
% inhibition at 100 μM [2]: > 60%
inhibition at 100 µM [1]: > 50%

Oc1cc(CNC2CCCCC2)c(O)cc1CNC1CCCCC1 [compound 3, NSC48443]
% inhibition at 100 μM [2]: > 60%
inhibition at 100 µM [1]: > 50%

CCOC(=O)/C(C#N)=C1\SS/C(=C(/C#N)C(=O)OCC)S1 [compound 2, NSC98363]
inhibition at 100 µM [1]: > 50%
